Results taken from ChEMBL document CHEMBL1201862, “PubChem BioAssay data set” (2004).
Values joined by “and” are separate entries in the source; they are usually repeats but may differ in a detail not shown here. Equal values may be shown once.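 Tested at 5 concentrations; 48 h exposure; 96-well plates; endpoints linearly interpolated, else capped at highest concentration. Abbreviation: GI50, concentration required for 50% inhibition of growth.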 Active and inactive are the calls of the source. Rule as the data show it: active = GI50 up to about 1.1 µM and inactive = higher.

Experiments:
Experiment in all cases: growth of human tumour cells (NCI), 48 h
A549 = system: A549
DMS-114 = system: DMS-114
SK-MEL-28 = system: SK-MEL-28
SNB-75 = system: SNB-75
OVCAR-4 = system: OVCAR-4
UO-31 = system: UO-31
HCT-15 = system: HCT-15
SK-OV-3 = system: SK-OV-3
Malme-3M = system: Malme-3M
COLO 205 = system: COLO 205
K562 = system: K562
RPMI-8226 = system: RPMI-8226
M19-MEL = system: M19-MEL
HOP-62 = system: HOP-62
OVCAR-5 = system: OVCAR-5
HCT-116 = system: HCT-116
NCI-H522 = system: NCI-H522
SK-MEL-2 = system: SK-MEL-2
MOLT-4 = system: MOLT-4
NCI-H460 = system: NCI-H460
OVCAR-3 = system: OVCAR-3
KM12 = system: KM12
ACHN = system: ACHN
SW-620 = system: SW-620
IGROV-1 = system: IGROV-1
CAKI-1 = system: CAKI-1
SF-295 = system: SF-295
A498 = system: A498
M14 = system: M14
HOP-92 = system: HOP-92
DMS-273 = system: DMS-273
UACC-257 = system: UACC-257
786-0 = system: 786-0
NCI-H23 = system: NCI-H23
EKVX = system: EKVX
LXFL 529 = system: LXFL 529
HT-29 = system: HT-29
DLD-1 = system: DLD-1
SNB-19 = system: SNB-19
KM-20L2 = system: KM-20L2
SNB-78 = system: SNB-78
U-251 = system: U-251
SR = system: SR
SK-MEL-5 = system: SK-MEL-5
RXF 631 = system: RXF 631
OVCAR-8 = system: OVCAR-8
SN12C = system: SN12C
HL-60 = system: HL-60
HOP-18 = system: HOP-18
NCI-H226 = system: NCI-H226
SF-539 = system: SF-539
UACC-62 = system: UACC-62
XF498 = system: XF498
LOX IMVI = system: LOX IMVI
SF-268 = system: SF-268

## Cc1c(C(=O)/C=C/c2ccccc2Cl)[n+]([O-])c2ccccc2[n+]1[O-]
A549
  GI50: 15.9 µM (inactive)
DMS-114
  GI50: 6.97 µM (inactive)
SK-MEL-28
  GI50: 16.6 µM (inactive)
SNB-75
  GI50: 16.4 µM (inactive)
OVCAR-4
  GI50: 12.1 µM (inactive)
UO-31
  GI50: 19.1 µM (inactive)
HCT-15
  GI50: 10.1 µM
SK-OV-3
  GI50: 20.4 µM (inactive)
Malme-3M
  GI50: 15.6 µM (inactive)
COLO 205
  GI50: 15.5 µM (inactive)
K562
  GI50: 5.53 µM (inactive)
RPMI-8226
  GI50: 11.9 µM (inactive)
M19-MEL
  GI50: 14.7 µM (inactive)
HOP-62
  GI50: 19.9 µM (inactive)
OVCAR-5
  GI50: 20.9 µM (inactive)
HCT-116
  GI50: 10.6 µM (inactive)
NCI-H522
  GI50: 11.2 µM (inactive)
SK-MEL-2
  GI50: 13.6 µM (inactive)
MOLT-4
  GI50: 16 µM (inactive)
NCI-H460
  GI50: 10.3 µM (inactive)
OVCAR-3
  GI50: 15.9 µM (inactive)
KM12
  GI50: 14.3 µM (inactive)
ACHN
  GI50: 17.2 µM (inactive)
SW-620
  GI50: 10.3 µM (inactive)
IGROV-1
  GI50: 15 µM (inactive)
CAKI-1
  GI50: 3.24 µM (inactive)
SF-295
  GI50: 14.7 µM (inactive)
A498
  GI50: 14 µM (inactive)
M14
  GI50: 15.2 µM (inactive)
HOP-92
  GI50: 15.3 µM (inactive)
DMS-273
  GI50: 14.3 µM (inactive)
UACC-257
  GI50: 13.4 µM (inactive)
786-0
  GI50: 12.6 µM (inactive)
NCI-H23
  GI50: 14.5 µM (inactive)
EKVX
  GI50: 17.3 µM (inactive)
LXFL 529
  GI50: 7.08 µM (inactive)
HT-29
  GI50: 17.3 µM (inactive)
DLD-1
  GI50: 6.53 µM (inactive)
SNB-19
  GI50: 17.3 µM (inactive)
KM-20L2
  GI50: 16.9 µM (inactive)
SNB-78
  GI50: 12.4 µM (inactive)
U-251
  GI50: 14.3 µM (inactive)
SR
  GI50: 16.6 µM (inactive)
SK-MEL-5
  GI50: 18 µM (inactive)
RXF 631
  GI50: 15.2 µM (inactive)
OVCAR-8
  GI50: 13.3 µM (inactive)
SN12C
  GI50: 15.1 µM (inactive)
HL-60
  GI50: 12.3 µM (inactive)
HOP-18
  GI50: 15 µM (inactive)
NCI-H226
  GI50: 15.3 µM (inactive)
SF-539
  GI50: 15.9 µM (inactive)

## C/C=C(/CCC1NCCc2c1[nH]c1ccccc21)[Si](C)(C)C (stereo not given)
A549
  GI50: 14.2 µM (inactive)
SNB-75
  GI50: 95.3 µM (inactive) and 6.17 µM (inactive)
OVCAR-4
  GI50: 81.7 µM (inactive) and 4.11 µM (inactive)
HCT-15
  GI50: 6.27 µM
SK-OV-3
  GI50: 13.4 µM (inactive)
Malme-3M
  GI50: 33.3 µM (inactive) and 1.78 µM (inactive)
COLO 205
  GI50: 1.94 µM (inactive)
K562
  GI50: 29.2 µM (inactive) and 2.49 µM (inactive)
HOP-62
  GI50: 13.5 µM (inactive)
UACC-62
  GI50: 78.9 µM (inactive) and 12.8 µM (inactive)
XF498
  GI50: 74.3 µM (inactive) and 1.73 µM (inactive)
MOLT-4
  GI50: 37.2 µM (inactive) and 2.37 µM (inactive)
LOX IMVI
  GI50: 4.42 µM (inactive)
A498
  GI50: 19.2 µM (inactive) and 11.3 µM (inactive)
EKVX
  GI50: 7.85 µM (inactive)
LXFL 529
  GI50: 1.85 µM (inactive)
SF-268
  GI50: 10.9 µM (inactive)
DLD-1
  GI50: 8.3 µM (inactive)
SNB-78
  GI50: 11.6 µM (inactive)
RXF 631
  GI50: 58.5 µM (inactive) and 6.87 µM (inactive)
OVCAR-8
  GI50: 8.97 µM (inactive)
SN12C
  GI50: 5.61 µM (inactive)
HOP-18
  GI50: 11.9 µM (inactive)
NCI-H226
  GI50: 13.8 µM (inactive)
